One may read the MIC50 as the lowest concentration that inhibits either 50% of growth or 50% of the strains tested, depending on the study. One may read the IC50 as the midpoint of a concentration-inhibition curve.

One data set has as its system Candida tropicalis. Briefly: Antifungal activity against Candida tropicalis ATCC 1369 assessed as fungal growth inhibition measured after 72 hrs by CLSI protocol based liquid medium dilution method. It counts as functional.
In another data set the test system is Aspergillus fumigatus. Briefly: Antifungal activity against Aspergillus fumigatus KM8001 assessed as fungal growth inhibition measured after 72 hrs by CLSI protocol based liquid medium dilution method. It counts as functional.
For data set [1], the system named is Candida albicans. Briefly: Antifungal activity against fluconazole resistant Candida albicans strain 17# assessed as fungal growth inhibition measured after 72 hrs by CLSI protocol based liquid medium dilution method. The class given is functional.
Data set [2] relates to Candida albicans. Kind of data set: Antifungal activity against fluconazole resistant Candida albicans strain 103 assessed as fungal growth inhibition measured after 72 hrs by CLSI protocol based liquid medium dilution method. It counts as functional.
Data set [3] relates to Candida albicans. Kind of data set: Induction of apoptosis in Candida albicans ATCC SC5314 cells assessed as late apoptotic cells at 8 ug/ml incubated for 72 hrs by Annexin V-FITC/PI staining based flow cytometry method (reference value: 0.12%). It counts as functional. The conditions noted are these: dose 8 µg/ml.
The subject of data set [4] is Candida albicans. Kind of data set: Antifungal activity against Candida albicans ATCC SC5314 assessed as change in eburicol level at 4 ug/ml incubated for 48 hrs by LC-MS analysis (reference value: 1.4%). It counts as functional. To be noted: dose 4 µg/ml.
Data set [5] concerns the target Lanosterol 14-alpha demethylase (Candida albicans (strain SC5314 / ATCC MYA-2876) (Yeast), UniProt P10613). Kind of data set: Inhibition of CYP51 in Candida albicans ATCC SC5314 incubated for 30 mins using eburicol as substrate in presence of NADPH by HPLC analysis.
The nature of data set [6]: Nephrotoxicity in mouse infected with Candida albicans ATCC SC5314 assessed as change in plasma BUN level at 4 mg/kg, ip administered ever other day for 12 days. It counts as toxicity, organism-based. To be noted: in vivo, 288 h, time 12 day.
In data set [7] the test system is Candida albicans. Kind of data set: Induction of morphological changes in Candida albicans assessed as structural damage in fungal cell membrane at 4 ug/ml measured after 48 hrs by TEM analysis. The class given is functional, organism-based. To be noted: dose 4.0 µg/ml.
The subject of data set [8] is Candida albicans. Briefly: Induction of morphological changes in Candida albicans assessed as disappearance of endoplasmic reticulum at 4 ug/ml measured after 72 hrs by TEM analysis. It counts as functional, organism-based. The conditions noted are these: dose 4.0 µg/ml.
The subject of data set [9] is Candida albicans. Briefly: Induction of morphological changes in Candida albicans assessed as enlargement of nucleus at 4 ug/ml measured after 72 hrs by TEM analysis. The class given is functional, organism-based. The conditions noted are these: dose 4.0 µg/ml.
Data set [10] deals with Mus musculus. Kind of data set: In vivo antifungal activity against Candida albicans ATCC SC5314 infected mouse assessed as reduction in fungal infection region at 4 mg/kg, ip administered ever other day for 12 days. The class given is functional, organism-based. The conditions noted are these: time 12.0 day.
Data set [11] relates to Mus musculus. Briefly: In vivo antifungal activity against Candida albicans ATCC SC5314 infected mouse model assessed as reduction in nuclear aggregation at 4 mg/kg, ip administered ever other day for 12 days by hematoxyin-eosin staining based microscopic analysis. It counts as functional, organism-based. To be noted: time 12.0 day.
Data set [12] can be described thus: Toxicity in mouse infected with Candida albicans ATCC SC5314 assessed as pathological changes in spleen at 4 mg/kg, ip administered ever other day for 12 days by hematoxylin and eosin staining based histopathological analysis. To be noted: in vivo, 288 h, time 12 day. The class given is organism-based.

Values after ≈ are worked out from the molar mass of the structure shown. Active and inactive are the calls of the source. The calls are words filed in the database; no cut-off is given here.

Chain of Lanosterol 14-alpha demethylase (P10613 whole entry): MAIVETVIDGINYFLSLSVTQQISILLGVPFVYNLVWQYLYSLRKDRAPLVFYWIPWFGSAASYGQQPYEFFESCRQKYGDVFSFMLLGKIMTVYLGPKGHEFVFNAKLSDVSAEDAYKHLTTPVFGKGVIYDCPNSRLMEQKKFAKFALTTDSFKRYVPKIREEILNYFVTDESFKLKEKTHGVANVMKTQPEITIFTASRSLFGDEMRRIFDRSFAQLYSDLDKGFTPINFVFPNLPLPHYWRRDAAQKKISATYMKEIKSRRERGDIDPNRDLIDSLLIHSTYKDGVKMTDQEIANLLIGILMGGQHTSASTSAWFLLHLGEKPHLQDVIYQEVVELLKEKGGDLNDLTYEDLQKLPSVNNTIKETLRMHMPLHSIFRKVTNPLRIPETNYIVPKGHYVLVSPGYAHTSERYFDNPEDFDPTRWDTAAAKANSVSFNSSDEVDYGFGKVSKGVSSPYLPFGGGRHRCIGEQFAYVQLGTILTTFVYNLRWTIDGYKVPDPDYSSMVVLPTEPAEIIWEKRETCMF

On to `CC(C)[C@H](NC(=O)c1cccc2c1OCCO2)C(=O)N[C@@H](Cn1cncn1)c1ccccc1`, for which the MIC50 is 0.125 µg/mL (≈ 0.278 µM) with Candida tropicalis, 2 µg/mL (≈ 4.45 µM) with Aspergillus fumigatus, 1 µg/mL (≈ 2.22 µM) in the data set with Candida albicans [1] and 0.5 µg/mL (≈ 1.11 µM) in the data set on Candida albicans [2]. The Activity is 1.78% in the data set with Candida albicans [3], 28.9% in the data set with Candida albicans [4], 15.8 mmol/L in data set [6] and “Non-Toxic” in data set [12]. Besides, in data set [5], the concentration for half-maximal inhibition (IC50) is 0.22 µM. For the same molecule, the result in the data set on Candida albicans [7], in the data set on Candida albicans [8], with Candida albicans [9], in the data set on Mus musculus [10] and with Mus musculus [11] was Active.

(Values after ChEMBL document CHEMBL5143523, “Construction and activity evaluation of novel benzodioxane derivatives as dual-target antifungal inhibitors” (Eur J Med Chem, 2022).)
